This passage reports IC50 and Kd results from patent publication US20120302573A1, “METHODS OF INHIBITING PRO MATRIX METALLOPROTEINASE ACTIVATION” (priority 2011, published 2012).

Assay [1] has as its target T1, full-length proMMP9(1-707) activation by catalytic MMP3 (Homo sapiens, UniProt P14780, R574P). The experiment in a line: proMMP9/MMP3 P126 Activation Assay. It is filed as biochemical. Conditions: proMMP9 from HEK293 cells. Further details: made in house; host or cells: E. coli (MMP3).
Method: The assay buffer employed was 50 mM Hepes, pH 7.5, 10 mM CaCl2, 0.05% Brij-35. DMSO was included at a final concentration of 2%, arising from the test compound addition. […] The reaction volume was 50 μL. […] Initial velocities were plotted by use of a four-parameter logistics equation (GraphPad Prism® software) for determination of IC50.
The target of assay [2] is T2, proMMP9(20-445;ΔFnII) (SEQ ID NO:6) (Homo sapiens, UniProt P14780, DEL216-390).
T2 construct: amino acid pairs including: 29-215/391-444, 67-215/391-444, and 20-215/391-445, respectively; start methionine (N); made in house; host or cells: E. coli BL21(DE3) RIL
T2 sequence (P14780 with tags, fused parts or gaps DEL216-390): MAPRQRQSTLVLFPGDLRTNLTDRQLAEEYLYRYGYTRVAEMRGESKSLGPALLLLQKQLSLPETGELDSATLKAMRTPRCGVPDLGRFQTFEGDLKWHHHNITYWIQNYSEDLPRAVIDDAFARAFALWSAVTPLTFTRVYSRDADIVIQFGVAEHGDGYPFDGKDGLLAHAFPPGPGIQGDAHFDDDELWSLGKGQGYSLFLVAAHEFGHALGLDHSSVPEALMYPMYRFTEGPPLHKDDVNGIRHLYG
In words: ThermoFluor binding assay with proMMP9(20-445;ΔFnII). Here is the method:
(§1) The experiments were carried out using instruments available from Johnson & Johnson Pharmaceutical Research & Development, LLC. TF dye used in all experiments was […] (1,8-ANS) (Invitrogen: A-47).
(§2) Columns 12 and 24 were used as DMSO reference and contained no compound. […] Following compound dispense, protein and dye solutions were added to achieve the final assay volume of 3 μL.
(§3) Assay plates were robotically loaded onto a thermostatically controlled PCR-type thermal block and then heated from 40 to 90° C. at a ramp-rate of 1° C./min for all experiments. Fluorescence was measured by continuous illumination with UV light (Hamamatsu LC6) supplied via fiber optics and filtered through a band-pass filter (380-400 nm; >6 OD cutoff). Fluorescence emission of the entire 384-well plate was detected by measuring light intensity using a CCD camera (Sensys, Roper Scientific) filtered to detect 500±25 nm, resulting in simultaneous and independent readings of all 384 wells.
(§4) Thermodynamic parameters necessary for fitting compound binding for each proMMP were estimated by differential scanning calorimetry (DSC) and from ThermoFluor® data. The heat capacity of unfolding for each protein was estimated from the molecular weight and from ThermoFluor® dosing data.
The protein sample preparations included a desalting buffer exchange step via a PD-10 gravity column (GE Healthcare).

Assay [3] deals with T3, proMMP9(67-444;ΔFnII) (SEQ ID NO:5) (Homo sapiens, UniProt P14780, DEL216-390).
T3 construct: amino acid pairs including: 29-215/391-444, 67-215/391-444, and 20-215/391-445, respectively; start methionine (N); made in house; host or cells: E. coli BL21(DE3) RIL
T3 sequence (P14780 with tags, fused parts or gaps DEL216-390): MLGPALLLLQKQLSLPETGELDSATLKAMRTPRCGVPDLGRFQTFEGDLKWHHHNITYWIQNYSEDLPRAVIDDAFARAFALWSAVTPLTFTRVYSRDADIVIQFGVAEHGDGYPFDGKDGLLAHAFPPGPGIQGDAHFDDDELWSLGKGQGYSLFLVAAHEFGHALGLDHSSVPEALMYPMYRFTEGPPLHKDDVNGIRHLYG
In words: ThermoFluor binding assay with proMMP9(67-444;ΔFnII). Here is the method: as §1, §2, §3, §4
The protein sample preparations had to include a desalting buffer exchange step via a PD-10 gravity column (GE Healthcare).
(In DSF a fluorescence change marks the thermal transition of the protein.)

Assay [4] concerns the target T1, full-length proMMP9(1-707) activation by catalytic MMP3. The experiment in a line: ProMMP9/MMP3 DQ Gelatin Activation Assay.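 Also: readout is fluorescence of quenched fluorescein gelatin cut by activated MMP9, 30 min activation at 37 °C, inhibition relative to DMSO-only controls with EDTA as blank.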 It is filed as biochemical. Set-up: made in house; host or cells: COS-1 (proMMP9); E. coli (MMP3). The note with it: proMMP9 from COS-1 cells; read-out: ProMMP9/MMP3 DQ gel, IC50.
Method: Compounds were assessed for inhibition of proMMP9 activation by catalytic MMP3 using a quenched fluorescein gelatin substrate (DQ gelatin, Invitrogen D12054) that fluoresces upon cleavage by activated MMP9. The assay buffer employed was 50 mM Hepes, pH 7.5, 10 mM CaCl2, 0.05% Brij-35. DMSO was included at a final concentration of 0.2%, arising from the test compound addition. […] Test compounds in DMSO were diluted 250-fold in assay buffer at 4× the final concentration. The reaction volume was 12 μL, and all reactions were conducted in triplicate. […] The plate was sealed and incubated for 30 min at 37° C. […] Immediately following the 30 min incubation, 4 μL of 40 μg/ml DQ gelatin substrate was added (freshly diluted in assay buffer), and incubated for 10 min at room temperature. […] Reactivity of residual MMP3 towards DQ gelatin was minimal under these conditions. Percent inhibition of test compounds were determined from suitable positive (DMSO only in assay buffer) and negative (EDTA added prior to reaction initiation) controls. Plots of % inhibition vs. test compound concentration were fit to a four-parameter logistics equation (GraphPad Prism® software) for determination of IC50.
The target of assay [5] is T4, proMMP13(1-268) (SEQ ID NO:7) (Homo sapiens, UniProt P45452).
T4 construct: 6x-histidine tag (C); made in house; host or cells: HEK293
In words: ThermoFluor binding assay with proMMP13(1-268). On the procedure:
The ThermoFluor® (TF) assay is a 384-well plate-based binding assay that measures thermal stability of proteins (Biomol Screen 2001, 6, 429-40; Biochemistry 2005, 44, 5258-66). The experiments were carried out using instruments available from Johnson & Johnson Pharmaceutical Research & Development, LLC. TF dye used in all experiments was […] (1,8-ANS) (Invitrogen: A-47).
Compounds were arranged in a pre-dispensed plate (Greiner Bio-one: 781280), wherein compounds were serially diluted in 100% DMSO across 11 columns within a series. Columns 12 and 24 were used as DMSO reference and contained no compound. For multiple compound concentration-response experiments, the compound aliquots ([…]) were robotically predispensed directly into black 384-well polypropylene PCR microplates (Abgene: TF-0384/k) using a Cartesian Hummingbird liquid handler (DigiLab, Holliston, Mass.). Following compound dispense, protein and dye solutions were added to achieve the final assay volume of 3 μL. The assay solutions were overlayed with 1 μL of silicone oil (Fluka, type DC 200: 85411) to prevent evaporation.
as §3, with “wells. A single image with 20-sec exposure time was collected at each temperature, and the sum of the pixel intensity in a given area of the assay plate was recorded vs temperature and fit to standard equations to yield the Tm (J Biomol Screen 2001, 6, 429-40).” for “wells.”
as §4
The proMMP13(1-268) (SEQ ID NO:7) protein sample preparations included a desalting buffer exchange step via a PD-10 gravity column (GE Healthcare). The desalting buffer exchange was performed prior to diluting the protein to the final assay concentration of 3.5 μM. The concentration of proMMP13(1-268) (SEQ ID NO:7) was estimated spectrophotometrically based on a calculated extinction coefficient of ε280=37000 M^−1 cm^−1, a calculated molecular weight of 30.8 kDa, and calculated pI of 5.33. ThermoFluor® reference conditions were defined as follows: 100 μg/mL proMMP13(1-268) (SEQ ID NO:7), 25 μM 1,8-ANS, pH 7.0 Buffer (50 mM HEPES pH 7.0, 100 mM NaCl, 0.001% Tween-20, 2.5 mM MgCl2, 300 μM CaCl2). The thermodynamic parameters for proMMP13(1-268) (SEQ ID NO:7) are as follows: Tm (° C.)=67 (+/−0.1), ΔUH(Tm) (cal mol^−1)=107000(+/−5000), ΔUS(Tm) (cal mol^−1 K^−1)=318, ΔUCp (cal mol^−1 K^−1)=2600.

Each structure is given as a SMILES string. Structures can show the parent of a compound that is named as a salt. Some results are limits rather than exact numbers.

T1 sequence (P14780 20-707 R574P): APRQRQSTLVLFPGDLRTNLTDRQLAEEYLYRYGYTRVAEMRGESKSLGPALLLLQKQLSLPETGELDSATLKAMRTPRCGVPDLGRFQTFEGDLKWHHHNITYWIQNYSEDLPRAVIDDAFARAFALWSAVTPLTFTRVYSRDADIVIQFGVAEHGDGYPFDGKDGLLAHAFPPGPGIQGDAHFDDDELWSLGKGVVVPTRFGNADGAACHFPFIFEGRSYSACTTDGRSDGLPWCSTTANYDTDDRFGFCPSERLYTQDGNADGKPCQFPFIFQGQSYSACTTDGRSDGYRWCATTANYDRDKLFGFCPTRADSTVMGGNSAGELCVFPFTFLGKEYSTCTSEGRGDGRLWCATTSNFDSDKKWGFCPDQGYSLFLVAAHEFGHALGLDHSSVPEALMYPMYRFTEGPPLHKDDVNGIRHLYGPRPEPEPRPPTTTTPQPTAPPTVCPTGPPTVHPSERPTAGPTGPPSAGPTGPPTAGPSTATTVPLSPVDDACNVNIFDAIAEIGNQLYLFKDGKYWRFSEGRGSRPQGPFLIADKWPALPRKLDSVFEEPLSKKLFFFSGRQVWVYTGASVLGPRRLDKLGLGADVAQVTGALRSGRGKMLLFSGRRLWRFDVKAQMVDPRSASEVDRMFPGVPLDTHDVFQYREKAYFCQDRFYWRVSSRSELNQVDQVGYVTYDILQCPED

For `Cc1nc(N)sc1-c1csc(Nc2ccccc2OC(C)C)n1` [Example 3, N^2-(2-Isopropoxy-phenyl)-4′-methyl-[4,5′]bithiazolyl-2,2′-diamine.TFA], the IC50 in assay [1] came to 2 µM. Moreover, the values for the Kd in assay [2] and in assay [3] were 3.81 µM and 1.15 µM, respectively.

Consider `CC(C)Oc1ccccc1Nc1nc(-c2cccnc2)cs1` [Example 15, (2-Isopropoxy-phenyl)-(4-pyridin-3-yl-thiazol-2-yl)-amine], for which, in assay [1], the IC50 was 2.5 µM. The Kd was > 95 µM in assay [2] and 43.3 µM in assay [3].

Regarding `COc1ccc(F)cc1Nc1nc(-c2sc(NC(C)=O)nc2C)c(Br)s1` [Example 18, N-[5-Bromo-2-(5-fluoro-2-methoxy-phenylamino)-4′-methyl-[4,5′]bithiazolyl-2′-yl]-acetamide.TFA], in assay [1], the IC50 turned out to be 2.6 µM. The Kd came out at 2.89 µM in assay [2] and 0.376 µM in assay [3].

Take `COc1ccc(Br)cc1Nc1nc(-c2sc(N)nc2C)cs1` [Example 20, N^2-(5-Bromo-2-methoxy-phenyl)-4′-methyl-[4,5′]bithiazolyl-2,2′-diamine.TFA]: the IC50 in assay [1] was 3.3 µM. For the same molecule, the values for the Kd in assay [2] and in assay [3] were 2.15 µM and 0.414 µM, respectively.

Turning to `COc1ccc(Br)cc1Nc1nc(-c2sc(C)nc2C)cs1` [Example 27, (5-Bromo-2-methoxy-phenyl)-(2′,4′-dimethyl-[4,5′]bithiazolyl-2-yl)-amine.TFA], in assay [1], the IC50 amounted to 3.1 µM. Moreover, the equilibrium dissociation constant (Kd) in assay [2] is 49.9 µM.

In assay [1], `COc1ccc(F)cc1Nc1nc(-c2ccc3c(c2)ncn3C)cs1` [Example 41, (5-Fluoro-2-methoxy-phenyl)-[4-(1-methyl-1H-benzoimidazol-5-yl)-thiazol-2-yl]-amine] returned an IC50 of 1.9 µM. Besides, the Kd in assay [2] was found to be 1.94 µM.

Regarding `COc1ccccc1Nc1nc(-c2ccncc2)cs1` [Example 60, (2-Methoxy-phenyl)-(4-pyridin-4-yl-thiazol-2-yl)-amine], the results for the Kd in assay [2], in assay [5] and in assay [3] were 16.8 µM, 44.4 µM and 11.3 µM, respectively. The IC50 in assay [4] is 5.5 µM.

Take `COc1ccc(OC)c(Nc2nc(-c3sc(NC(C)=O)nc3C)cs2)c1` [Example 61, N-[2-(2,5-Dimethoxy-phenylamino)-4′-methyl-[4,5′]bithiazolyl-2′-yl]-acetamide]: the Kd amounted to 5.07 µM in assay [2], 21 µM in assay [5] and 1.06 µM in assay [3]. Further, in assay [4], the IC50 stood at 1.6 µM.

On to `CCc1ccccc1Nc1nc(-c2sc(NC(C)=O)nc2C)cs1` [Example 62, N-[2-(2-Ethyl-phenylamino)-4′-methyl-[4,5′]bithiazolyl-2′-yl]-acetamide], for which the results for the Kd in assay [2], in assay [5] and in assay [3] were 8.29 µM, 47.2 µM and 2.46 µM, respectively. Also, the IC50 in assay [4] was 3.4 µM.

As to `COc1ccccc1Nc1nc(-c2sc(C)nc2C)cs1` [Example 64, (2′-4′-Dimethyl-[4,5′]bithiazolyl-2-yl)-(2-methoxy-phenyl)-amine], the Kd in assay [2] was 47.5 µM; in assay [5], > 95 µM; in assay [3] it was 45.3 µM. Further, the IC50 in assay [4] is 2.1 µM.

`COc1ccc(OC)c(Nc2nc(-c3c[nH]c4ncccc34)cs2)c1` [Example 73, (2,5-Dimethoxy-phenyl)-[4-(1H-pyrrolo[2,3-b]pyridin-3-yl)-thiazol-2-yl]-amine]: the Kd worked out at 25.5 µM in assay [2], 18 µM in assay [5] and 15.9 µM in assay [3]. The IC50 in assay [4] was found to be 17.9 µM.

For `CCOc1ccccc1Nc1nc(-c2cn3ccccc3n2)cs1` [Example 74, (2-Ethoxy-phenyl)-(4-imidazo[1,2-a]pyridin-2-yl-thiazol-2-yl)-amine], the Kd in assay [2] was 7.89 µM; in assay [5], > 95 µM; in assay [3] it was 66.1 µM. Moreover, the IC50 in assay [4] is 21.1 µM.

On to `COc1ccccc1Nc1nc(-c2cnc3cnccn23)cs1` [Example 75, (4-Imidazo[1,2-a]pyrazin-3-yl-thiazol-2-yl)-(2-methoxy-phenyl)-amine], for which the Kd in assay [2] was found to be 17.9 µM; in assay [5], 28.9 µM; in assay [3], 10.1 µM. Also, the IC50 in assay [4] is 17.9 µM.

On to `COc1ccccc1Nc1nc(-c2c[nH]c3ncccc23)cs1` [Example 76, (2-Methoxy-phenyl)-[4-(1H-pyrrolo[2,3-b]pyridin-3-yl)-thiazol-2-yl]-amine], for which the Kd in assay [2] is 27 µM; in assay [5], 57.1 µM; in assay [3], 10.8 µM. Also, in assay [4], the IC50 amounted to 16.3 µM.

As for `COc1ccc(F)cc1Nc1nc(-c2sc(C)nc2C)c(C)s1` [Example 77, N-(5-fluoro-2-methoxyphenyl)-2′,4′,5-trimethyl-[4,5′-bithiazol]-2-amine.HBr], in assay [1], the IC50 is 3.8 µM. Besides, the values for the Kd in assay [2] and in assay [3] were > 77 µM and 20.6 µM, respectively.

For `COc1ccc(F)cc1Nc1nc(-c2sc(C3CCN(C)CC3)nc2C)cs1` [Example 78, N-(5-fluoro-2-methoxyphenyl)-4′-methyl-2′-(1-methylpiperidin-4-yl)-[4,5′-bithiazol]-2-amine.TFA], in assay [1], the IC50 worked out at 0.13 µM. For the same molecule, the Kd in assay [2] is 0.879 µM; in assay [3], 0.146 µM.

On to `COc1ccc(F)cc1Nc1nc(-c2ccc(N3CCN(C4CC4)CC3)nc2)cs1` [Example 79, 4-(6-(4-Cyclopropylpiperazin-1-yl)pyridin-3-yl)-N-(5-fluoro-2-methoxyphenyl)thiazol-2-amine.TFA], for which the IC50 in assay [1] was found to be 1 µM. For the same molecule, the Kd in assay [2] was determined as 21.4 µM; in assay [3], 3.93 µM.

One may read the Kd as the equilibrium constant for the complex coming apart. The low end stands for a tighter complex, the high end for a looser complex.
